Data set [1] has as its system Trypanosoma brucei rhodesiense. In words: Antiprotozoal activity against trypomastigote stage of Trypanosoma brucei rhodesiense STIB900 after 72 hrs by Alamar Blue assay. The data set is classed as functional, organism-based. The note with it: STIB900, 72 h. For orientation: The colour change of resazurin is a common sign of viable cells or microbes.
In another data set the test system is Trypanosoma cruzi. Nature of the data set: Antitrypanosomal activity against Trypanosoma cruzi Tulahuen C4 amastigotes harboring LacZ infected in rat L6 cells after 96 hrs by CPRG/Nonidet reagent based photometric analysis. The data set is classed as functional, organism-based. The note with it: Tulahuen C4, L6, 96 h.
For the next data set, the system named is Leishmania donovani. In words: Antileishmanial activity against Leishmania donovani MHOM/ET/67/L82 axenic amastigotes after 72 hrs by alamar blue staining based fluorescence assay. In kind it is functional, organism-based. The note with it: MHOM/ET/67/L82, 72 h.
The next data set has as its system L6. Nature of the data set: Cytotoxicity against rat L6 cells after 72 hrs by alamar blue assay. Particulars: L6, 72 h. The data set is classed as cell-based.
Data set [2] in a line: Selectivity index, ratio of IC50 for rat L6 cells to IC50 for trypomastigote stage of Trypanosoma brucei rhodesiense STIB900. Particulars: read-out: Ratio IC50. The data set is classed as toxicity.
The nature of data set [3]: Selectivity index, ratio of IC50 for rat L6 cells to IC50 for Trypanosoma cruzi Tulahuen C4 amastigotes harboring LacZ infected in rat L6 cells. In kind it is toxicity, cell-based. Particulars: read-out: Ratio IC50.
Data set [4] can be described thus: Selectivity index, ratio of IC50 for rat L6 cells to IC50 for Leishmania donovani MHOM/ET/67/L82 axenic amastigotes. The data set is classed as toxicity. Particulars: read-out: Ratio IC50.
Data set [5] is described as follows: Selectivity index, ratio of IC50 for rat L6 cells to IC50 for IEF stage of Plasmodium falciparum NF54. In kind it is toxicity. Particulars: read-out: Ratio IC50.
The test system of the next data set is Plasmodium falciparum. In words: microbe, parasite or virus in culture. The note with it: NF54.

Description for Plasmodium falciparum: Antiplasmodial activity against IEF stage of Plasmodium falciparum NF54 assessed as reduction in [3H]hypoxanthine incorporation preincubated for 48 hrs followed by [3H]hypoxanthine addition measured after 24 hrs by liquid scintillation counting method

`CC1=C2C[C@@H]3C(C)(C)OC4=C(C(C)C)C(=O)[C@]5(CC[C@H]6C(C)(C)CCC[C@]67C[C@]25[C@@]43O7)CC1=O`: the IC50 (in general, the point on the concentration scale where inhibition reaches its midpoint) in [1] turned out to be 56 µM; in the data set on Trypanosoma cruzi it was 3.5 µM; with Leishmania donovani it was 15.5 µM; with L6, 37.2 µM; in the data set on Plasmodium falciparum, 0.6 µM. In addition, the selectivity ratio in [2] is 0.7; in [3] it was 10.7; in [4], 2.4; in data set [5], 62.2.
Compound `C[C@@H]1CC[C@H]2[C@@H](C)C(=O)O[C@@H]3O[C@@]4(C)CC[C@@H]1[C@]32OO4` [ARTEMISININ] gave an IC50 with Plasmodium falciparum of 0.008 µM. In other words, the single-digit nanomolar range.
In the case of `CC1=C2[C@H](O)[C@@H]3C(C)(C)OC4=C(C(C)C)C(=O)[C@]5(CC[C@H]6C(C)(C)CCC[C@]67C[C@]25[C@@]43O7)CC1=O`, the IC50 in [1] is 45.3 µM; in the data set with Trypanosoma cruzi, 3.8 µM; in the data set with Leishmania donovani it was 7.5 µM; with L6 it was 13.6 µM; in the data set with Plasmodium falciparum it was 7.5 µM. The selectivity ratio was 0.3 in data set [2], 3.6 in data set [3], 1.8 in data set [4] and 1.8 in [5].
In turn, `O=C(Cn1ccnc1[N+](=O)[O-])NCc1ccccc1` [BENZNIDAZOLE] had an IC50 in the data set on Trypanosoma cruzi of 5.1 µM.
On to `Nc1nc(N)nc(Nc2ccc([As]3SCC(CO)S3)cc2)n1` (configuration not stated) [MELARSOPROL], for which inhibition in [1] was half-maximal at 0.04 µM (IC50). That is a double-digit nanomolar value.
Turning to `CC(C)=C[C@H]1[C@@H]2C(C)=CC[C@]34CC[C@H]5C(C)(C)CCC[C@]56C[C@]23[C@@](O)(O6)C(=O)[C@]1(C(C)C)C4=O`, the IC50 in data set [1] came out at 66.9 µM; in the data set on Trypanosoma cruzi, 35.8 µM; in the data set on Leishmania donovani it was 21.3 µM; with L6, 47.2 µM; in the data set with Plasmodium falciparum it was 1.1 µM. The selectivity ratio in data set [2] was determined as 0.7; in [3] it was 1.3; in [4], 2.2; in data set [5], 44.2.
`CC1=C2C[C@@H]3C(C)(C)O[C@]45O[C@@]4(C(C)C)C(=O)[C@]4(CC[C@H]6C(C)(C)CCC[C@]67C[C@]24[C@]35O7)CC1=O`: the 50% inhibitory concentration (IC50) is 30.5 µM in data set [1]; 11.5 µM with Trypanosoma cruzi; 12.3 µM in the data set on Leishmania donovani; 72.2 µM with L6; 1.3 µM in the data set with Plasmodium falciparum. Further, the selectivity ratio in data set [2] was 2.4; in data set [3], 6.3; in data set [4], 5.9; in data set [5] it was 56.9.
As for `C=CC1=C[C@@H]2[C@H]3C(C)=CO[C@]45O[C@]67CCCC(C)(C)[C@@H]6CC[C@](C1)(C(=O)[C@]3(C(C)C)C4=O)[C@]25C7`, the IC50 came out at 24.6 µM in [1]; 47.9 µM with Trypanosoma cruzi; 15.6 µM with Leishmania donovani; 41.6 µM in the data set on L6; 1.9 µM in the data set with Plasmodium falciparum. In addition, the selectivity ratio was found to be 1.7 in [2], 0.9 in data set [3], 2.7 in [4] and 22 in data set [5].
With `CC(C)C1=C2OC(C)(C)[C@H]3C[C@@]45O[C@]4(C)[C@H](O)C[C@@]4(CC[C@H]6C(C)(C)CCC[C@]67C[C@@]45[C@@]23O7)C1=O`, the IC50 in data set [1] amounted to 74.6 µM; in the data set on Trypanosoma cruzi, 19.8 µM; in the data set with Leishmania donovani, 44.1 µM; with L6, 46.9 µM; with Plasmodium falciparum it was 3.6 µM. The selectivity ratio in data set [2] was found to be 0.6; in data set [3], 2.4; in data set [4], 1.1; in data set [5], 12.9.
In the data set on Leishmania donovani, `CCCCCCCCCCCCCCCCOP(=O)([O-])OCC[N+](C)(C)C` [MILTEFOSINE] showed an IC50 of 0.9 µM.
Regarding `CC(=O)[C@@]12C[C@H]3C(C)(C)OC4=C(C(C)C)C(=O)[C@]5(CC[C@H]6C(C)(C)CCC[C@]67C[C@@]51[C@@]43O7)C[C@H]2O`, the IC50 is 85.8 µM in data set [1]; 33.9 µM in the data set on Trypanosoma cruzi; 12.3 µM in the data set with Leishmania donovani; 41.1 µM in the data set on L6; 7.9 µM in the data set with Plasmodium falciparum. Further, the selectivity ratio was 0.5 in data set [2], 1.2 in data set [3], 3.3 in [4] and 5.2 in [5].

Values taken from ChEMBL document CHEMBL4382273, “Antiprotozoal Isoprenoids from Salvia hydrangea” (J Nat Prod, 2018).
